Among the data in patent publication EP2061765B1, “Serine-threonine protein kinase and PARP modulators” (Senhwa Biosciences, Inc., priority 2006, dated 2008) are IC50 values, retold here.

Some results are limits rather than exact numbers.

Test in all cases: Cell proliferation assay (Alamar Blue)
What all share (assay type): cell-based
Background: Alamar Blue is a resazurin reagent that responds to reducing activity.

One assay concerns HCT-116. The following applies: Homo sapiens, 96 h, HCT-116 cells, four days.
In the next assay the test system is MiaPaCa. As to conditions: Homo sapiens, MIA PaCa-2, 96 h, MiaPaCa cells, four days. How it is done: (§1) A representative cell-proliferation assay protocol using Alamar Blue dye (stored at 4°C, use 20ul per well) is described hereafter. 96-well plate setup and compound treatment • a. Split and trypsinize cells. • b. Count cells using hemocytometer. • c. Plate 4,000-5,000 cells per well in 100 µl of medium and seed into a 96-well plate according to the following plate layout. Add cell culture medium only to wells B10 to B12. Wells B1 to B9 have cells but no compound added. [formula] [formula] • d. Add 100 µl of 2X drug dilution to each well in a concentration shown in the plate layout above. At the same time, add 100 µl of media into the control wells (wells B10 to B12). Total volume is 200 µl/well. • e. Incubate four (4) days at 37°C, 5% CO2 in a humidified incubator. • f. Add 20µl Alamar Blue reagent to each well. • g. Incubate for four (4) hours at 37°C, 5% CO2 in a humidified incubator. • h. Record fluorescence at an excitation wavelength of 544nm and emission wavelength of 590nm using a microplate reader.
(§2) In the assays, cells are cultured with a test compound for approximately four days, the dye then is added to the cells and fluorescence of […] dye is detected after approximately four hours. Different types of cells can be utilized in the assays (e.g., HCT-116 human colorectal carcinoma cells, PC-3 human prostatic cancer cells and MiaPaca human pancreatic carcinoma cells). Anti-proliferative effects of representative compounds are provided hereafter.

The subject of a further assay is Jurkat. As to conditions: Homo sapiens, 96 h, Jurkat cells, four days. How it is done:
as §1, §2

In the assay with HCT-116, `c1ccc(Nc2nc3cc(-c4nnn[nH]4)ccc3c3cnccc23)cc1` registered an IC50 of over 10 µM.

For the compound `N#Cc1ccc2c(c1)nc(Nc1ccccc1)c1ccncc12`, the IC50 in the assay on HCT-116 was 6.9 µM.

`Cc1noc(-c2ccc3c(c2)nc(Nc2ccccc2)c2ccncc23)n1` had an IC50 in the assay with HCT-116 of over 10 µM.

Turning to `COC(=O)c1ccc2c(c1)nc(Cl)c1ncncc12`, the values for the IC50 in the assay with MiaPaCa and with HCT-116 were 2.92 µM and 1.71 µM, respectively.

On to `COC(=O)c1ccc2c(c1)nc(Nc1cccc(Cl)c1)c1ccncc12`, for which the IC50 with MiaPaCa and in the assay on HCT-116 was over 10 µM throughout.

Consider `COC(=O)c1ccc2c(c1)nc(Nc1ccccc1)c1nc(SC)ncc12`, for which the IC50 in the assay on MiaPaCa was over 10 µM; in the assay on HCT-116, 9.56 µM.

Consider `COC(=O)c1ccc2c(c1)nc(Nc1ccccc1)c1nc(S(C)(=O)=O)ncc12`, for which the IC50 stood at 2.82 µM in the assay with MiaPaCa and 0.97 µM in the assay with HCT-116.

With `CNc1ncc2c(n1)c(Nc1ccccc1)nc1cc(C(=O)OC)ccc12`, the IC50 in the assay with MiaPaCa was over 10 µM; with HCT-116, 4.06 µM.

In the case of `OCc1ccc2c(c1)nc(Nc1cccc(Cl)c1)c1ccncc12`, the IC50 in the assay with MiaPaCa amounted to 4.05 µM; in the assay with HCT-116 it was 4.28 µM.

As to `O=C(O)c1ccc2c(c1)nc(Nc1ccccc1)c1nc(NC3CC3)ncc12` [drawing 318], the IC50 was 2.42 µM in the assay with Jurkat, 0.68 µM in the assay with MiaPaCa and 1.94 µM with HCT-116.

For `CCCNc1ncc2c(n1)c(Nc1ccccc1)nc1cc(C(=O)O)ccc12` [drawing 319], the IC50 with Jurkat was 4.53 µM; with MiaPaCa, 2.99 µM; with HCT-116, over 10 µM.

For the compound `COCCNc1ncc2c(n1)c(Nc1ccccc1)nc1cc(C(=O)O)ccc12` [drawing 320], the 50% inhibitory concentration (IC50) in the assay with Jurkat was 5.8 µM; in the assay with MiaPaCa it was 3.2 µM; in the assay on HCT-116, over 10 µM.

In the case of `O=C(O)c1ccc2c(c1)nc(Nc1ccccc1)c1nc(NCCO)ncc12` [drawing 321], the results for the IC50 with Jurkat, with MiaPaCa and in the assay on HCT-116 were 26.1 µM, 16.2 µM and over 10 µM, respectively.

Take `O=C(O)c1ccc2c(c1)nc(Nc1ccccc1)c1nc(NCCCO)ncc12` [drawing 322]: the IC50 with Jurkat is 7.9 µM; with MiaPaCa it was 11.9 µM; with HCT-116, over 10 µM.

With `O=C(O)c1ccc2c(c1)nc(Nc1ccccc1)c1nc(NC3CCNCC3)ncc12` [drawing 323], the IC50 was 18.9 µM in the assay on Jurkat, 14.4 µM in the assay with MiaPaCa and over 10 µM with HCT-116.

Take `CCN(CC)CCNc1ncc2c(n1)c(Nc1ccccc1)nc1cc(C(=O)O)ccc12` [drawing 324]: the IC50 is 13.1 µM in the assay with Jurkat, 1.45 µM in the assay on MiaPaCa and over 10 µM in the assay on HCT-116.

In the case of `O=C(O)c1ccc2c(c1)nc(Nc1ccccc1)c1nc(NCCN3CCOCC3)ncc12` [drawing 325], the IC50 in the assay with Jurkat was 5.7 µM; in the assay on MiaPaCa, 1.69 µM; with HCT-116, over 10 µM.

Regarding `O=C(O)c1ccc2c(c1)nc(Nc1ccccc1)c1nc(NCCCN3CCOCC3)ncc12` [drawing 326], the IC50 in the assay on Jurkat was 2.18 µM; in the assay on MiaPaCa, 1.36 µM; in the assay on HCT-116, over 10 µM.

In the case of `C#Cc1cccc(Nc2nc3cc(C(=O)O)ccc3c3cnc(NC4CC4)nc23)c1` [drawing 327], the values for the half-inhibitory concentration (IC50) in the assay on Jurkat, in the assay on MiaPaCa and in the assay on HCT-116 were 1.27 µM, 1.2 µM and 7.3 µM, respectively.

For `C#Cc1cccc(Nc2nc3cc(C(=O)O)ccc3c3cnc(NCCC)nc23)c1` [drawing 328], the IC50 with Jurkat is 2.67 µM; in the assay with MiaPaCa it was 2.32 µM; with HCT-116, over 10 µM.

In the case of `C#Cc1cccc(Nc2nc3cc(C(=O)O)ccc3c3cnc(NCCOC)nc23)c1` [drawing 329], the IC50 came out at 0.94 µM in the assay on Jurkat, 1 µM in the assay on MiaPaCa and 8.05 µM in the assay with HCT-116.

On to `C#Cc1cccc(Nc2nc3cc(C(=O)O)ccc3c3cnc(NC4CCNCC4)nc23)c1` [drawing 330], for which the IC50 with Jurkat was 9.55 µM; with MiaPaCa, 8.62 µM; with HCT-116, over 10 µM.

With `C#Cc1cccc(Nc2nc3cc(C(=O)O)ccc3c3cnc(NCCCN4CCOCC4)nc23)c1` [drawing 331], the IC50 with Jurkat is 3.69 µM; with MiaPaCa, 2.26 µM; in the assay with HCT-116 it was over 10 µM.

Consider `C#Cc1cccc(Nc2nc3cc(C(=O)O)ccc3c3cnc(NC)nc23)c1` [drawing 332], for which the results for the IC50 with Jurkat, in the assay on MiaPaCa and in the assay on HCT-116 were 1.29 µM, 2.34 µM and 4.69 µM, respectively.

With `O=C(O)c1ccc2c(c1)nc(Nc1ccc(Cl)c(C(F)(F)F)c1)c1ccncc12` [drawing 333], the IC50 came out at 3.05 µM with Jurkat, 9.09 µM with MiaPaCa and 3.99 µM in the assay with HCT-116.

On to `O=C(O)c1ccc2c(c1)nc(Nc1cccc(Cl)c1)c1nc(NC3CC3)ncc12` [drawing 334], for which the IC50 in the assay with Jurkat stood at 1.29 µM; in the assay on MiaPaCa, 0.47 µM; in the assay with HCT-116 it was 7.82 µM.

Consider `O=C(O)c1ccc2c(c1)nc(Nc1cccc(C(F)(F)F)c1)c1ncncc12` [drawing 335], for which the IC50 was 2.53 µM in the assay on Jurkat, 2.23 µM with MiaPaCa and over 10 µM with HCT-116.

In the case of `CCOc1ncc2c(n1)c(Nc1cccc(C(F)(F)F)c1)nc1cc(C(=O)O)ccc12` [drawing 336], the IC50 with Jurkat is 35.9 µM; with MiaPaCa it was 18.1 µM; with HCT-116 it was over 10 µM.

On to `Nc1ncc2c(n1)c(Nc1cccc(Cl)c1)nc1cc(C(=O)O)ccc12` [drawing 339], for which the IC50 is 1.14 µM with Jurkat, 0.88 µM in the assay with MiaPaCa and over 10 µM in the assay with HCT-116.

With `CC(C)Nc1ncc2c(n1)c(Nc1cccc(Cl)c1)nc1cc(C(=O)O)ccc12` [drawing 340], the IC50 was 18.4 µM with Jurkat, 5.45 µM with MiaPaCa and over 10 µM with HCT-116.

As for `O=C(O)c1ccc2c(c1)nc(Nc1cccc(C(F)(F)F)c1)c1nc(NC3CC3)ncc12` [drawing 341], the figures for the IC50 in the assay on Jurkat and in the assay with MiaPaCa were 3.13 µM and 0.65 µM, respectively.

As for `CCNc1ncc2c(n1)c(Nc1cccc(Cl)c1)nc1cc(C(=O)O)ccc12` [drawing 342], the IC50 amounted to 3.06 µM in the assay with Jurkat and 0.92 µM in the assay with MiaPaCa.

Take `CNc1ncc2c(n1)c(Nc1ccc(F)c(Cl)c1)nc1cc(C(=O)O)ccc12` [drawing 343]: the IC50 in the assay on Jurkat is 1.24 µM; in the assay on MiaPaCa, 0.65 µM; in the assay on HCT-116 it was over 10 µM.

As for `Nc1ncc2c(n1)c(Nc1ccc(F)c(Cl)c1)nc1cc(C(=O)O)ccc12` [drawing 344], the IC50 in the assay with Jurkat was found to be 4.34 µM; in the assay with MiaPaCa, 0.95 µM; in the assay on HCT-116, 11.2 µM.

Regarding `O=C(O)c1ccc2c(c1)nc(Nc1ccc(F)c(Cl)c1)c1nc(NC3CC3)ncc12` [drawing 345], the IC50 with Jurkat was 1.54 µM; in the assay with MiaPaCa it was 0.37 µM; with HCT-116, over 10 µM.

In the case of `COCCNc1ncc2c(n1)c(Nc1ccc(F)c(Cl)c1)nc1cc(C(=O)O)ccc12` [drawing 346], the IC50 with Jurkat was 0.41 µM; in the assay with MiaPaCa it was 1.08 µM; with HCT-116 it was over 10 µM.

Consider `C#Cc1cccc(Nc2nc3cc(C(=O)O)ccc3c3cnc(NCCOCC)nc23)c1` [drawing 347], for which the IC50 was 1.13 µM in the assay with Jurkat, 0.62 µM with MiaPaCa and over 10 µM in the assay on HCT-116.

For the compound `C#Cc1cccc(Nc2nc3cc(C(=O)O)ccc3c3cnc(NCCCOCC)nc23)c1` [drawing 348], the figures for the IC50 with Jurkat, with MiaPaCa and in the assay on HCT-116 were 0.39 µM, 0.87 µM and over 10 µM, respectively.

As for `C#Cc1cccc(Nc2nc3cc(C(=O)O)ccc3c3cnc(NCCCOC(C)C)nc23)c1` [drawing 349], the IC50 was 2.37 µM in the assay with Jurkat, 2.01 µM in the assay on MiaPaCa and over 10 µM with HCT-116.

As for `O=C(O)c1ccc2c(c1)nc(Nc1cccc(Cl)c1)c1nc(O)ncc12` [drawing 350], the figures for the IC50 in the assay with Jurkat, in the assay on MiaPaCa and in the assay with HCT-116 were over 50 µM, over 50 µM and over 10 µM, respectively.

`Cc1ncc2c(n1)c(Nc1cccc(Cl)c1)nc1cc(C(=O)O)ccc12` [drawing 351]: the IC50 was 4.95 µM with Jurkat, 5.39 µM in the assay on MiaPaCa and over 10 µM in the assay with HCT-116.

Turning to `C#Cc1cccc(Nc2nc3cc(C(=O)OC)ccc3c3cnc(NOC)nc23)c1` [drawing 352], the IC50 in the assay on Jurkat was 27 µM; in the assay on MiaPaCa it was over 50 µM; with HCT-116 it was over 10 µM.

In the case of `COC(=O)c1ccc2c(c1)nc(Nc1cccc(Cl)c1)c1nc(NCCC(N)=O)ncc12` [drawing 353], the IC50 with Jurkat is 4.41 µM; in the assay on MiaPaCa, 17.1 µM; in the assay with HCT-116, over 10 µM.

As for `NC(=O)CCNc1ncc2c(n1)c(Nc1cccc(Cl)c1)nc1cc(C(=O)O)ccc12` [drawing 354], the 50% inhibitory concentration (IC50) was 37.7 µM in the assay on Jurkat, over 50 µM in the assay with MiaPaCa and over 10 µM with HCT-116.

Consider `O=C(O)CCNc1ncc2c(n1)c(Nc1cccc(Cl)c1)nc1cc(C(=O)O)ccc12` [drawing 355], for which the IC50 is over 50 µM with Jurkat, over 50 µM in the assay with MiaPaCa and over 10 µM in the assay on HCT-116.

In the case of `O=C(NC1CC1)c1ccc2c(c1)nc(Nc1cccc(C(F)(F)F)c1)c1nc(NC3CC3)ncc12` [drawing 365], the IC50 was 3.92 µM with Jurkat and over 10 µM in the assay on HCT-116.

Turning to `CC(C)OC(=O)Nc1ccc2c(c1)nc(Nc1cccc(C(F)(F)F)c1)c1nc(NC3CC3)ncc12` [drawing 370], the IC50 in the assay on Jurkat is 1.16 µM; in the assay with HCT-116, over 10 µM.

As usually defined, the IC50 is the point on the concentration scale where inhibition reaches its midpoint. A low value points to greater potency.
